Source: patent US8507477B2, “3- and 6-quinolines with N-attached heterocyclic CGRP receptor antagonists” (Merck, Sharp & Dohme, Corp., priority 2008, dated 2013)

Molecular target: recombinant human CL receptor/RAMP1 (Homo sapiens (Human), UniProt O60894+Q16602)
Assay: Recombinant receptor binding assay (125I-hCGRP displacement, membranes of HEK 293 cells)
Conditions: membranes of HEK 293 cells expressing human CL receptor/RAMP1
Protocol: RECOMBINANT RECEPTOR: Human CL receptor (Genbank accession number L76380) was subcloned into the expression vector pIREShyg2 (BD Biosciences Clontech) as a 5′NheI and 3′PmeI fragment. Human RAMP1 (Genbank accession number AJ001014) was subcloned into the expression vector pIRESpuro2 (BD Biosciences Clontech) as a 5′NheI and 3′NotI fragment. HEK 293 cells (human embryonic kidney cells; ATCC #CRL-1573) were cultured in DMEM with 4.5 g/L glucose, 1 mM sodium pyruvate and 2 mM glutamine supplemented with 10% fetal bovine serum (FBS), 100 units/mL penicillin and 100 μg/mL streptomycin, and maintained at 37° C. and 95% humidity. Cells were subcultured by treatment with 0.25% trypsin with 0.1% EDTA in HBSS. Stable cell line generation was accomplished by co-transfecting 10 μg of DNA with 30 μg Lipofectamine 2000 (Invitrogen) in 75 cm^2 flasks. CL receptor and RAMP1 expression constructs were co-transfected in equal amounts. Twenty-four hours after transfection the cells were diluted and selective medium (growth medium+300 μg/mL hygromycin and 1 μg/mL puromycin) was added the following day. A clonal cell line was generated by single cell deposition utilizing a FACS Vantage SE (Becton Dickinson). Growth medium was adjusted to 150 μg/mL hygromycin and 0.5 μg/mL puromycin for cell propagation.
RECOMBINANT RECEPTOR BINDING ASSAY: Cells expressing recombinant human CL receptor/RAMP1 were washed with PBS and harvested in harvest buffer containing 50 mM HEPES, 1 mM EDTA and Complete protease inhibitors (Roche). The cell suspension was disrupted with a laboratory homogenizer and centrifuged at 48,000 g to isolate membranes. The pellets were resuspended in harvest buffer plus 250 mM sucrose and stored at −70° C. For binding assays, 20 μg of membranes were incubated in 1 ml binding buffer (10 mM HEPES, pH 7.4, 5 mM MgCl2, and 0.2% BSA) for 3 hours at room temperature containing […] ^125I-hCGRP (GE Healthcare) and antagonist. The assay was terminated by filtration through 96-well GFB glass fiber filter plates (PerkinElmer) that had been blocked with 0.05% polyethyleneimine. The filters were washed 3 times with ice-cold assay buffer (10 mM HEPES, pH 7.4 and 5 mM MgCl2). Scintillation fluid was added and the plates were counted on a Topcount (Packard). Non-specific binding was determined and the data analysis was carried out with the apparent dissociation constant (Ki) determined by using a non-linear least squares fitting the bound CPM data to the equation below:
[formula] Where Y is observed CPM bound, Ymax is total bound counts, Ymin is non specific bound counts, (Ymax−Ymin) is specific bound counts, % Imax is the maximum percent inhibition, % I min is the minimum percent inhibition, radiolabel is the probe, and the Kd is the apparent dissociation constant for the radioligand for the receptor as determined by Hot saturation experiments.

Sequence of recombinant human CL receptor/RAMP1 (Q16602 23-461): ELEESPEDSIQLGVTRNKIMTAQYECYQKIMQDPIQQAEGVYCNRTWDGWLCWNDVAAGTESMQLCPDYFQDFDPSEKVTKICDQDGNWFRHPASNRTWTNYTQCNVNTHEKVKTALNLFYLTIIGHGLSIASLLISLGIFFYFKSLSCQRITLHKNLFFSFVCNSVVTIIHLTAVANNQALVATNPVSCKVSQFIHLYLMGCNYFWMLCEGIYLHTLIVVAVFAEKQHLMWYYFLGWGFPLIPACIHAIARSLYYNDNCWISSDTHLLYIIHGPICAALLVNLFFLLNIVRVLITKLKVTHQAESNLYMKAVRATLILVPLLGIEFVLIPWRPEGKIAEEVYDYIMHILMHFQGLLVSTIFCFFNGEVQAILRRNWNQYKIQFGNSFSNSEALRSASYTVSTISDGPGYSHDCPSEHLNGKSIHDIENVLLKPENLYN
Sequence of recombinant human CL receptor/RAMP1 (O60894 27-148): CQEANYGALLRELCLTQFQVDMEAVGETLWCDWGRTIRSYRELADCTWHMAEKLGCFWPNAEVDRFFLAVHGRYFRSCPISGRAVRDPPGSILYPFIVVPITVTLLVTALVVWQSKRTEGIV

Ki [nM] | SMILES
0.057 | CC(C)N1C(=O)N(Cc2cnc3cc4c(cc3c2)C[C@@]2(C4)C(=O)Nc3ncccc32)C2(CCCc3ccccc32)C1=O (stereo partly shown) [Example 5]
0.34 | CC(C)N1C(=O)N(Cc2cnc3cc4c(cc3c2)C[C@@]2(C4)C(=O)Nc3ncccc32)C2(CCCCCC2)C1=O [Example 6]
0.14 | O=C1N(Cc2cnc3cc4c(cc3c2)C[C@@]2(C4)C(=O)Nc3ncccc32)[C@H](c2cc(F)cc(F)c2)CNC12CCCC2 [Example 8]
0.77 | O=C1N(Cc2cnc3cc4c(cc3c2)C[C@@]2(C4)C(=O)Nc3ncccc32)[C@H](c2cc(F)cc(F)c2)CCC12CCCC2 [Example 9]
1.3 | O=C1N(Cc2cnc3cc4c(cc3c2)C[C@@]2(C4)C(=O)Nc3ncccc32)C(c2ccccc2Cl)=NC12CCCC2 [Example 10]
0.28 | CC(C)N1C(=O)N(Cc2cnc3cc4c(cc3c2)C[C@@]2(C4)C(=O)Nc3ncccc32)C(C)(c2ccccc2)C1=O (stereo partly shown) [Example 12]
0.062 | CN1C[C@@](C)(c2cc(F)cc(F)c2)N(Cc2cnc3cc4c(cc3c2)C[C@@]2(C4)C(=O)Nc3ncccc32)C(=O)C12CCCC2 [Example 13]
0.49 | O=C1N(Cc2cnc3cc4c(cc3c2)C[C@@]2(C4)C(=O)Nc3ncccc32)[C@H](c2cc(F)cc(F)c2)CCNC12CCCC2 [Example 15]
0.89 | O=C1N(Cc2ccc3nc4c(cc3c2)C[C@@]2(C4)C(=O)Nc3ncccc32)[C@H](c2cc(F)cc(F)c2)CCNC12CCCC2 [Example 16]
57 | O=C1NCCN(Cc2cnc3cc4c(cc3c2)C[C@@]2(C4)C(=O)Nc3ncccc32)C1c1ccc(F)cc1 (stereo partly shown) [Example 17]
